This is an account of results in US10947213B1 (Merck Patent GmbH, priority 2015, dated 2021).

The experiment concerns the target T1, TLR7/NFKb HEK cells (Homo sapiens, UniProt Q9NYK1).
T1 construct: expressed in transfected cells; host or cells: HEK cells (TLR7/NFKb reporter line)
T1 sequence (Q9NYK1 27-1049): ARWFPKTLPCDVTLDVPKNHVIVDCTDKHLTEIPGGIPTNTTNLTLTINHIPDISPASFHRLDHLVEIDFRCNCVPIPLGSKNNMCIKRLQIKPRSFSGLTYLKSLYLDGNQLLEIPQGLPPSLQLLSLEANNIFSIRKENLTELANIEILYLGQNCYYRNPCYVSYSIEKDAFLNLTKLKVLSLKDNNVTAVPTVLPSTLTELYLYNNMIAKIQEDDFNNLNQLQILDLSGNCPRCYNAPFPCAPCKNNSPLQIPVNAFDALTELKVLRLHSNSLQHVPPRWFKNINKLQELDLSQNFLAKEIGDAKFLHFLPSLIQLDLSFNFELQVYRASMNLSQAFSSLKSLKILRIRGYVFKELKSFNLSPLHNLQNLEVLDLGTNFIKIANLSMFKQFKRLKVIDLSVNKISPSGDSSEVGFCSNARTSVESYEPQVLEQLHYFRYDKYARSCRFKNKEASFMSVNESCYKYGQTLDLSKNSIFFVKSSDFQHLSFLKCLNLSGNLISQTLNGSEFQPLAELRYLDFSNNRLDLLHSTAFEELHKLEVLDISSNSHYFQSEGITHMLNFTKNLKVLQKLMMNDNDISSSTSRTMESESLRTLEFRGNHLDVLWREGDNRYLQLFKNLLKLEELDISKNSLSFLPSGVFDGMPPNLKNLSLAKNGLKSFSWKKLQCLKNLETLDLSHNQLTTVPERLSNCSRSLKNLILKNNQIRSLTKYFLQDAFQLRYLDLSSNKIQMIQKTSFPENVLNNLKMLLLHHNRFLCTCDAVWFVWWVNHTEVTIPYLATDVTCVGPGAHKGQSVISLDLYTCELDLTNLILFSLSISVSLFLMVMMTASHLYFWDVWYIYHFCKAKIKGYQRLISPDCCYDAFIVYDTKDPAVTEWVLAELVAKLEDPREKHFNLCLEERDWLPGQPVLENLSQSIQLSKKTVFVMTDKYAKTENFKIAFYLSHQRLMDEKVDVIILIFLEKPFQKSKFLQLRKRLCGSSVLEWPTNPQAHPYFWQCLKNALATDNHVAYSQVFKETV
Description: HEK Cell Assay (TLR7/NFKb reporter, Steady-Glo luciferase readout). Particulars: 30 min compound preincubation, then R*48 agonist for 5 hours, read-out: Potency. The class given is cell-based. The method, boiled down:
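Steady-Glo luminescence after 5 h stimulation with R*48 agonist, following 30 min compound preincubation. Assay run in HEK cells carrying a TLR7/NFKb luciferase reporter, plated at 5000 cells/well and grown 24 h at 37° C (10% CO2) before treatment.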
On to `C[C@H]1C[C@@H](NC(=O)CC2CN(C)C2)CN(c2ccc(C(F)(F)F)c3nccnc23)C1` [Compound 363, N-[(3R,5S)-5-methyl-1-[8-(trifluoromethyl)quinoxalin-5-yl]piperidin-3-yl]-2-(1-methylazetidin-3-yl)acetamide], for which the IC50 is under 1000 nM.

In the case of `C[C@@H]1CN(c2ccnc3nccnc23)C[C@H](CN2CCN(C)CC2)O1` [Compound 47, (2R,6S)-2-methyl-6-((4-methylpiperazin-1-yl)methyl)-4-(pyrido[2,3-b]pyrazin-8-yl)morpholine], the IC50 lay within 1000 to 10000 nM.

Take `C[C@H]1C[C@@H](NC(=O)CN2CCCN(C)CC2)CN(c2ccc(C#N)c3nccnc23)C1` [Compound 276, N-[(3R,5S)-1-(8-cyanoquinoxalin-5-yl)-5-methylpiperidin-3-yl]-2-(4-methyl-1,4-diazepan-1-yl)acetamide]: the IC50 was under 1000 nM.

Consider `C[C@H]1C[C@@H](NC(=O)CC2CNC2)CN(c2ccc(C(F)(F)F)c3nccnc23)C1` [Compound 300, 2-(azetidin-3-yl)-N-[(3R,5S)-5-methyl-1-[8-(trifluoromethyl)quinoxalin-5-yl]piperidin-3-yl]acetamide], for which the IC50 was under 1000 nM.

Take `C[C@H]1C[C@@H](NC(=O)CN2CCOCC2)CN(c2ccc(C(F)(F)F)c3ncccc23)C1` [Compound 239, N-[(3R,5S)-5-methyl-1-[8-(trifluoromethyl)quinolin-5-yl]piperidin-3-yl]-2-(morpholin-4-yl)acetamide]: the IC50 was under 1000 nM.

Turning to `Cc1ncc(N2C[C@@H](C)C[C@@H](NC(=O)CC3CCN(C)CC3)C2)c2cccnc12` [Compound 554, N-[(3R,5S)-5-Methyl-1-(8-methyl-[1,7]naphthyridin-5-yl)-piperidin-3-yl]-2-(1-methyl-piperidin-4-yl)-acetamide], the IC50 is under 1000 nM.

Take `C[C@H]1C[C@@H](NC(=O)CC(C)(C)C)CN(c2ccc(C(F)(F)F)c3ncccc23)C1` [Compound 195, 3,3-dimethyl-N-[(3R,5S)-5-methyl-1-[8-(trifluoromethyl)quinolin-5-yl]piperidin-3-yl]butanamide]: the IC50 is under 1000 nM.

In the case of `CC(O)C(=O)N[C@@H]1C[C@H](C)CN(c2ccc(C#N)c3nccnc23)C1` (stereo partly drawn) [Compound 265, N-[(3R,5S)-1-(8-cyanoquinoxalin-5-yl)-5-methylpiperidin-3-yl]-2-hydroxypropanamide], the IC50 is under 1000 nM.

On to `C[C@H]1C[C@@H](NC(=O)C(C)(C)C2CCN(C)CC2)CN(c2ccc(C#N)c3nccnc23)C1` [Compound 349, N-[(3R,5S)-1-(8-cyanoquinoxalin-5-yl)-5-methylpiperidin-3-yl]-2-methyl-2-(1-methylpiperidin-4-yl)propanamide], for which the IC50 was under 1000 nM.

For the molecule `C[C@H]1C[C@@H](NC(=O)C(C2CC2)N(C)C)CN(c2ccc(C(F)(F)F)c3ncccc23)C1` (stereo partly drawn) [Compound 519, 2-Cyclopropyl-2-dimethylamino-N-[(3R,5S)-5-methyl-1-(8-trifluoromethyl-quinolin-5-yl)-piperidin-3-yl]-acetamide], the IC50 was under 1000 nM.

In the case of `C[C@H]1C[C@@H](NC(=O)CC2(C)CCN(C)CC2)CN(c2ccc(C(F)(F)F)c3ncccc23)C1` [Compound 245, 2-(1,4-dimethylpiperidin-4-yl)-N-[(3R,5S)-5-methyl-1-[8-(trifluoromethyl)quinolin-5-yl]piperidin-3-yl]acetamide], the IC50 is under 1000 nM.

Regarding `CN1CCN(CC(=O)N[C@@H]2C[C@H](F)CN(c3ccc(C#N)c4nccnc34)C2)CC1` [Compound 502, N-[(3R,5S)-1-(8-Cyano-quinoxalin-5-yl)-5-fluoro-piperidin-3-yl]-2-(4-methyl-piperazin-1-yl)-acetamide], the IC50 lay within 1000 to 10000 nM.

For `CCN(C)[C@H](C)C(=O)N[C@@H]1C[C@H](C)CN(c2ccc(C#N)c3nccnc23)C1` [Compound 98, (2R)—N-[(3R,5S)-1-(8-cyanoquinoxalin-5-yl)-5-methylpiperidin-3-yl]-2-[ethyl(methyl)amino]propanamide], the IC50 was under 1000 nM.

For `CCN1CCC[C@H]1C(=O)NC1CC(C(F)(F)F)CN(c2ccc(C#N)c3ncccc23)C1` (single isomer, unassigned) [Compound 437], the IC50 lay in the range of 1000 to 10000 nM.

Turning to `C[C@H]1C[C@@H](NC2CCN(C)C2=O)CN(c2ccc(C(F)(F)F)c3ncccc23)C1` (single isomer, unassigned) [Compound 238], the IC50 is under 1000 nM.

Turning to `C[C@H]1C[C@@H](NC(=O)CC2C3CC2CN(C)C3)CN(c2ccc(C#N)c3nccnc23)C1` (single isomer, unassigned) [Compound 357], the IC50 was under 1000 nM.

In the case of `C[C@H]1C[C@@H](NC(=O)NCC2CC(F)(F)C2)CN(c2ccc(C(F)(F)F)c3ncccc23)C1` [Compound 582, 1-(3,3-Difluoro-cyclobutylmethyl)-3-[(3R,5S)-5-methyl-1-(8-trifluoromethyl-quinolin-5-yl)-piperidin-3-yl]-urea], the IC50 lay in the range of 1000 to 10000 nM.

With `CC1CC(CN2CCN(C)CC2)CN(c2ccc(C(F)(F)F)c3ncccc23)C1` (single isomer, unassigned) [Compound 533, cis-5-[3-Methyl-5-(4-methyl-piperazin-1-ylmethyl)-piperidin-1-yl]-8-trifluoromethyl-quinoline], the IC50 was under 1000 nM.

As for `C[C@H]1C[C@@H](N)CN(c2ccc(C(F)F)c3ncccc23)C1` [Compound 68, (3R,5S)-1-[8-(difluoromethyl)quinolin-5-yl]-5-methylpiperidin-3-amine], the IC50 is under 1000 nM.

As for `CNC(=O)[C@@H]1C[C@H](C)CN(c2ccc(C#N)c3nccnc23)C1` (relative stereo) [Compound 541, cis-1-(8-Cyano-quinoxalin-5-yl)-5-methyl-piperidine-3-carboxylic acid methylamide], the IC50 was 1000 to 10000 nM.

As to `N#Cc1ccc(N2C[C@@H](N)C[C@@H](C(F)(F)F)C2)c2cccnc12` (relative stereo) [Compound 71, cis-5-(3-Amino-5-trifluoromethyl-piperidin-1-yl)-quinoline-8-carbonitrile], the IC50 was under 1000 nM.

`Cc1ncc(N2C[C@@H](C)C[C@@H](NC(=O)CC3(N)CCCCC3)C2)c2cccnc12` [Compound 563, 2-(1-Amino-cyclohexyl)-N-[(3R,5S)-5-methyl-1-(8-methyl-[1,7]naphthyridin-5-yl)-piperidin-3-yl]-acetamide]: the IC50 is under 1000 nM.

Take `COCCN[C@H]1CN(c2ccc(C#N)c3nccnc23)CC(C)(C)C1` [Compound 216, 8-[(5R)-5-[(2-methoxyethyl)amino]-3,3-dimethylpiperidin-1-yl]quinoxaline-5-carbonitrile]: the IC50 is under 1000 nM.

On to `CCC(C)CC(=O)N[C@@H]1C[C@H](C)CN(c2ccnc3nccnc23)C1` (single isomer, unassigned) [Compound 152], for which the IC50 lay in the range of 1000 to 10000 nM.

In the case of `C[C@H]1C[C@@H](NC(=O)C(O)C2CC2)CN(c2ccc(C(F)(F)F)c3ncccc23)C1` (single isomer, unassigned) [Compound 521], the IC50 was under 1000 nM.

For the molecule `Cc1cc(N2CCC(CNCCN3CCCCC3)CC2)c2cc(F)ccc2n1` [Compound 381, [1-(6-Fluoro-2-methyl-quinolin-4-yl)-piperidin-4-ylmethyl]-(2-piperidin-1-yl-ethyl)-amine], the IC50 was 1000 to 10000 nM.

On to `CC(C)[C@H](O)C(=O)NC1CC(C(F)(F)F)CN(c2ccc(C#N)c3ncccc23)C1` (single isomer, unassigned) [Compound 429], for which the IC50 was over 10000 nM.
